Here are results for 2 compounds from patent publication US20170304175A1, “COMPOSITION FOR INDUCING FACILITATION OF CELL REJUVENATION COMPRISING GENISTEIN OR EPIGALLOCATECHIN GALLATE” (AMOREPACIFIC CORPORATION, priority 2014, published 2017).

SMILES strings stand for the structures.

The test system of the assay is melanocytes. The assay can be described thus: Observation of phenotype of melanocytes with an optical microscope. The class given is cell-based, Human. The conditions noted are these: long-term exposure (1 μM in medium from passage 7 to passage 11/12), FIGS. 4A-4B. The method, then:
Human primary melanocytes (Life Technologies, CA, USA) were cultured in a M-254 medium (Gibco BRL, NY, USA) supplemented with a human melanocyte growth supplement (HMGS; Gibco BRL, NY, USA) in a 5% CO2 incubator at […] on a 100-mm culture plate while replacing the medium every other day until the cells occupy 80% of the plate area and then subcultured on another 100-mm culture plate at a ratio of 1:4.
The melanocytes first placed on the 100-mm culture plate were considered as passage 1 (PA1) and subculturing was performed 11 times (PA12).
As a control group, melanocytes were subcultured to passage 11 and passage 12 without any treatment, and as a test group, the cells were subcultured under the same environment as the control group until passage 6, and then subcultured from passage 7 to passage 11 and passage 12 in a medium containing 1 μM genistein or epigallocatechin gallate (EGCG).

Regarding `O=C(O[C@@H]1Cc2c(O)cc(O)cc2O[C@@H]1c1cc(O)c(O)c(O)c1)c1cc(O)c(O)c(O)c1` [epigallocatechin gallate (EGCG), epigallocatechin gallate], the “phenotype of melanocytes of the late cell line” value was “recovered similarly to the cells of the early stage of subculturing”.
Take `O=c1c(-c2ccc(O)cc2)coc2cc(O)cc(O)c12` [genistein]: the “phenotype of melanocytes of the late cell line” value was “recovered similarly to the cells of the early stage of subculturing”.
